PMC7714071, “Interaction of amyloid beta with humanin and acetylcholinesterase is modulated by ATP” (FEBS Open Bio, 2020)

Tests used:
AChE [1] = assay: ELISA, binding of biotinylated-Aβ40 to immobilised AChE; parameters: species or system human
Excerpt: (§1) Most of the material used was purchased as we previously reported. Nitrocellulose membranes, PBS, ATP, recombinant human AChE (C1682, UniProt accession ID: C9JD78), streptavidin‐conjugated horseradish peroxidase (HRP) conjugate, Ponceau S solution, PMSF, and HS sodium salt from bovine kidney were purchased from Sigma‐Aldrich (St. Louis, MO, USA). Mouse IgG isotype control (mIgG), ultra 3,3′,5,5′‐tetramethylbenzidine (TMB)‐ELISA substrate solution, Halt Protease and Phosphatase Inhibitor Cocktail, HN polyclonal antibody (rabbit, PA1‐41610), and Nunc MaxiSorpTM 96‐well flat bottom plates were from Thermo Fisher (Waltham, MA, USA). […]
(§2) ELISAs were carried out as we previously reported. […] TBST was then used to wash the wells 4× before proceeding in one of two ways: (a) biotinylated samples were analyzed by adding 100 µL streptavidin–HRP conjugate in TBST (1 : 2500 dilution) to the samples followed by incubation for 3 h at RT on a shaker, or (b) samples without biotin were analyzed by adding 100 µL TBST containing the primary antibody as per the manufacturer's recommendation, incubating for 3 h at RT on a shaker, followed by washing the wells 4× with TBST. […] The reaction was stopped with 100 µL 2 M H2SO4 after incubating at RT for 0.5–15 min, resulting in a yellow color change, measured by absorbance at 450 nm. […] Statistical analysis was determined by the […]

AChE [2] = assay: ELISA, binding of biotinylated-Aβ42 to immobilised AChE; parameters: species or system human
Excerpt: as §1, §2

Aβ40 = conditions: HN and AChE compared; cited from earlier work
Excerpt: Amino acid residues involved in direct interactions between HN and Aβ40 were identified previously by molecular modeling. The specific epitopes at the binding interface between HN and Aβ40 were identified, by proteolytic epitope excision and extraction in addition to affinity–mass spectrometric data analysis, to be HN (5–15) and Aβ (17–28). […] Inhibiting the 17–28 region of Aβ reduced aggregation of the neurotoxic amyloid fibrils and related cytotoxicity in SH‐SY5Y, a human neuroblastoma cell ... || Humanin has been previously reported to bind amino acid residues 17–28 of Aβ (Fig. 1). AChE is also known to bind Aβ (1–16) and the Aβ (12–28) region (Fig. 1). Since the binding sites of AChE and HN on Aβ are overlapping, we previously investigated whether HN and AChE can simultaneously bind Aβ [79].

Aβ42 = conditions: HN and AChE compared; cited from earlier work
Excerpt: Humanin has been previously reported to bind amino acid residues 17–28 of Aβ (Fig. 1). AChE is also known to bind Aβ (1–16) and the Aβ (12–28) region (Fig. 1). Since the binding sites of AChE and HN on Aβ are overlapping, we previously investigated whether HN and AChE can simultaneously bind Aβ [79].

[3] = AChE 10 nM on wells, biotinylated-Aβ 1 μM, increasing HS, three independent assays, Fig. 2C

Nc1ncnc2c1ncn2[C@@H]1O[C@H](COP(=O)(O)OP(=O)(O)OP(=O)(O)O)[C@@H](O)[C@H]1O [ATP, Adenosine triphosphate]
effect of ATP on affinity of AChE to Aβ40 (AChE [1]; 200 μM ATP, 30 min preincubation RT, pH 7.5, 10 mM MgCl2, three experiments in triplicate, Fig. 3A): reduced the affinity | effect of ATP on affinity of AChE to Aβ42 (AChE [2]; 200 μM ATP, 30 min preincubation RT, pH 7.5, 10 mM MgCl2, three experiments in triplicate, Fig. 3B): reduced the affinity

heparan sulfate [HS]
effect of HS on binding of Aβ40 to AChE (AChE [1]; [3]): No effects | effect of HS on binding of Aβ42 to AChE (AChE [2]; [3]): No effects

Humanin [HN]
affinity for Aβ40 (Aβ40): comparable affinities | affinity for Aβ42 (Aβ42): comparable affinities
